Reference: patent EP1845096A1, “12-Aza-epothilones, process for their preparation and their use as antiproliferative agents” (ETH Zürich, priority 2006, dated 2007)
Read-outs that look alike come from different tables or passages of the source.

What was measured:
[1] = test system: PC-3M; assay: Human cancer cell growth inhibition, methylene blue staining, PC-3M; assay type: cell-based; details: read-out: IC50 PC-3M
Description: (§1) Stock solutions of the test compounds (2 mM) are prepared in DMSO and stored at -20°C. Human KB-31 and (multidrug-resistant, P-gp170 expressing) KB-8511 epidermoid carcinoma cells (Akiyama et al., Somat. Cell. Mol. Genetics 1985, 11, 117-120), which are both derivatives of the KB cell line (ATCC) and are human epidermis carcinoma cells, are employed. KB 31 cells may be cultivated in mono-layers using Dulbecco's modified Eagle's medium (D-MEM) with 10% foetal calf serum (M.A. Bioproducts), L-glutamine (Flow), penicillin (50 units/ml) and streptomycin (50 µg/ml) (Flow); they then grow at a duplication time of ca. 22 hours, and their relative plating efficiency is ca. 60%. KB-8511 is a variant derived from the KB-31 cell line, which is obtained using colchicine treatment cycles, and has an approximately 40 times relative resistance to colchicine compared with KB-31 cells. The cells are incubated at 37°C in an incubator with 5% v/v CO2 and at 80% relative humidity with MEMAlpha medium which contains ribonucleosides and desoxyribonucleosides (Gibco BRL), complemented with 10 IU penicillin, 10 µg/ml streptomycin and 5% foetal calf serum. The cells are seeded in a quantity of 1.5 x 10^3 cells/well in 96-well microtitre plates, and incubated over night. Serial dilutions of the test compounds in culture medium are added on day 1. […] After washing, the dye is eluted with 3% HCl and the optical density measured at 665 nm with a GeniosPro plate spectrophotometer (Tecan, Switzerland). IC50 values are determined by adaptation of mathematical curves, using the formula [(OD treated)-(OD start) [/] (OD control)-(OD start)] x 100. The IC50 is defined as the concentration of a test compound at the end of the incubation period, which led to 50% of the cell count per well compared with the control (concentration at semi-maximum inhibition of cell growth).
(§2) The preferred ranges of the IC50 values of compounds of formula (I) are given in square parentheses. A549 (lung; ATCC CCL 185) [0.01 to 100 nM], HCT-116 (colon) [0.05 to 200 nM], and PC-3M cells (prostate, hormone-insensitive derivative derived from PC-3, ATCC CRL 1435) [0.05 to 500 nM] were grown in RPMI-1640 medium supplemented with 10% FBS.

[2] = biological target: porcine brain αβ-tubulin (Sus scrofa, UniProt P02554); assay: Tubulin polymerization (turbidimetry at 340 nm); assay type: biochemical
Description: Tubulin is isolated as pure αβ-tubulin from fresh pig brain according to the method of Castoldi and Popov (Protein Expr. Purif. 2003, 32, 83-88). Working stock solutions of αβ-tubulin are stored at -80°C. Freshly thawed αβ-tubulin is centrifuged and then incubated with the compounds to be tested in suitable solvents and buffers, guanosine-5'-triphosphate (GTP), and glutamate in a 96-well plate, as described in more detail below in the Examples. The polymerization is monitored real-time at 340 nm in a temperature-controlled TECAN GeniosPro spectrophotometer. UV absorption of compounds is subtracted from absorption curves.
Tubulin was isolated as pure αβ-tubulin from fresh pig brain according to the method of Castoldi and Popov (Protein Expr. Purif. 2003, 32, 83-88). Fresh brains were obtained from the local slaughterhouse and processed immediately without prior cooling. 150-200 g cleaned pig brain was put into ice-cooled depolymerization buffer (50 mM MES [2-morpholinoethanesulphonic acid], 1 mM CaCl2, adjusted to pH 6.9 with KOH) and homogenized in a Polytron mixer. The homogenate was centrifuged in a Sorvall SLA-1500 rotor at 14500 rpm for 60 min. The supernatant was transferred into an Erlenmeyer flask in high-molarity PIPES buffer (1 M PIPES [1,4-piperazinediethanesulfonic acid], 10 mM MgCl2, 20 mM EGTA [ethylene glycol-bis-2(2-aminoethyl)-tetraacetic acid] adjusted to pH 6.9 with KOH) plus […] (1.5 mM final concentration) and glycerol (98%) ad 300 ml. The resulting suspension was mixed and incubated at 37°C for 1 hour. Aliquots were transferred into ultracentrifuge tubes and centrifuged in a Beckman Ti50.2 rotor at.32500 rpm (96000 g) for 75 min at 30°C. The microtubule protein pellets were resuspended in depolymerization buffer and put on ice prior to ultracentrifugation at 4°C. The procedure was repeated for two polymerization cycles (total of 3 cycles) and the final αβ-tubulin pellets were resuspended in ice-cold Brinkley Buffer (BRB80; 80 mM PIPES, 1 mM MgCl2, 1 mM EGTA adjusted to pH 6.8 with KOH) prior to shock-freezing in liquid nitrogen and subsequent storage at -80°C. αβ-tubulin purity and concentration were determined by SDS-PAGE gel electrophoresis and spectrophotometrically (A = ε x c x d with a given extinction coefficient of 115'000 M^-1cm^-1) at 280 nm. This procedure typically yielded 60-100 mg of αβ-tubulin per 100 g of brain.
Freshly thawed αβ-tubulin was centrifuged at 5000 g for 5 min at 5°C and then incubated with additional BRB80 buffer, drugs, DMSO vehicle, guanosine-5'-triphosphate (GTP) / glutamate (25 mM /2.7 M), respectively, in a 96-well plate in either 50 or 100 µl volumes. Experiments were either carried out in a 96-well quartz plate or in normal 96-well polystyrene plates (Falcon). The polymerization was monitored real-time at 340 nm in a temperature-controlled TECAN GeniosPro spectrophotometer. Depending on the specific experiment, the temperature was set either to room temperature (actual measuring temperature was 24-27°C) or 37°C. […] UV absorption of compounds was subtracted from absorption curves. All experiments, along with both negative (untreated αβ-tubulin) and vehicle controls, were carried out in triplicate. Experiments were performed at least with two different αβ-tubulin batches.

[3] = test system: HCT-116; assay: Human cancer cell growth inhibition, methylene blue staining, HCT-116; assay type: cell-based; details: read-out: IC50 HCT-116
Description: as §1, §2

[4] = test system: A549; assay: Human cancer cell growth inhibition, methylene blue staining, A549; assay type: cell-based
Description: as §1, §2

[5] = test system: KB-31; assay: Human cancer cell growth inhibition, methylene blue staining, KB-31; assay type: cell-based; details: read-out: IC50 KB-31
Description: as §1, with “The cells are incubated at 37°C in an incubator with 5% v/v CO2 and at 80% relative humidity with MEMAlpha medium which contains ribonucleosides and desoxyribonucleosides (Gibco BRL), complemented with 10 IU penicillin, 10 µg/ml streptomycin and 5% foetal calf serum.” left out, “night.” for “night. Serial dilutions of the test compounds in culture medium are added on day 1.”, “(OD control)-(OD start)] x 100. The IC50 is defined as the concentration of a test compound at the end of the incubation period, which led to 50% of the cell count per well compared with the control (concentration at semi-maximum inhibition of cell growth).” left out

[6] = test system: drug-sensitive human cancer cells; assay: Potency comparison on drug-sensitive human cancer cell lines (from Table 1); assay type: cell-based; details: potency ratio versus reference compound B
Description: as §1, with “The cells are incubated at 37°C in an incubator with 5% v/v CO2 and at 80% relative humidity with MEMAlpha medium which contains ribonucleosides and desoxyribonucleosides (Gibco BRL), complemented with 10 IU penicillin, 10 µg/ml streptomycin and 5% foetal calf serum.” left out, “night.” for “night. Serial dilutions of the test compounds in culture medium are added on day 1.”, “(OD control)-(OD start)] x 100. The IC50 is defined as the concentration of a test compound at the end of the incubation period, which led to 50% of the cell count per well compared with the control (concentration at semi-maximum inhibition of cell growth).” left out

porcine brain αβ-tubulin, sequence (P02554 whole entry): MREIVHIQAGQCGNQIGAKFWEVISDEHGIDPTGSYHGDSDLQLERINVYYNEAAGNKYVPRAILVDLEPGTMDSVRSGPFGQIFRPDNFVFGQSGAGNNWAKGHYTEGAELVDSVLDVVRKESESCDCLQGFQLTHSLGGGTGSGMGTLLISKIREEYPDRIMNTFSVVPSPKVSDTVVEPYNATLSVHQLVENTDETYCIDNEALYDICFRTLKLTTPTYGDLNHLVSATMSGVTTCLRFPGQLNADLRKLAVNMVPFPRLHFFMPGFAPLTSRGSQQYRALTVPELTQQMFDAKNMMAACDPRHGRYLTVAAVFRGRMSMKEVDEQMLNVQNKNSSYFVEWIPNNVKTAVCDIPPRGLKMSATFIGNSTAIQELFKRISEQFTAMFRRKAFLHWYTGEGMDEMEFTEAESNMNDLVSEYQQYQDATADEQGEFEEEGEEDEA
porcine brain αβ-tubulin, sequence (P02550 whole entry partner): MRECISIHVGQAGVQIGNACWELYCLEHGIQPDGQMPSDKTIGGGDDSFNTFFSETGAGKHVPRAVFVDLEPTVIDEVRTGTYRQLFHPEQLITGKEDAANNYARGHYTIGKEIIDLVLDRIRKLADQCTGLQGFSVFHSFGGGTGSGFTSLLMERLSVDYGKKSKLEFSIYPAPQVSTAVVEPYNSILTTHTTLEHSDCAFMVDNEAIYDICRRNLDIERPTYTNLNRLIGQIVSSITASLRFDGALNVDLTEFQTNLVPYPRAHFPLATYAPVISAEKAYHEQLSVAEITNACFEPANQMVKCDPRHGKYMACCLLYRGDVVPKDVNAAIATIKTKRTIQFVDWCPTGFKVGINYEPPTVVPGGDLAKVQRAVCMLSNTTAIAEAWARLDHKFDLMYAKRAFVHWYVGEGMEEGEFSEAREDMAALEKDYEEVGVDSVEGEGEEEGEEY

Structure (SMILES)	IC50 ([1]; PC-3M)	EC50 [2]	IC50 ([3]; HCT-116, 72 h)	IC50 ([4]; A549, read-out: IC50 A549)	IC50 ([5]; KB 3-1, KB-31: cervical (or cervix), parental line, cells exposed for 72 h)	IC50 ([1]; PC-3M: prostate, cells exposed, mean of at least three experiments ± standard deviation)	EC50 ([2]; concentration required to induce 50% of the maximum αβ-tubulin polymerization achievable with the respective compound, 10 µM of porcine brain αβ-tubulin, turbidity at 340 nm, mean ± standard deviation, read-out: EC50 Tubulin polymerization)	IC50 ([3]; HCT-116: colon, cells exposed for 72 h, mean of at least three experiments ± standard deviation)	more potent against drug-sensitive human cancer cells than aza-epothilone B [6]	IC50 ([4]; A549: lung, cells exposed, mean of at least three experiments ± standard deviation, read-out: IC50 A549)	IC50 ([5]; KB 3-1, 72 h)
CCOC(=O)N1CCC[C@H](C)[C@H](O)[C@@H](C)C(=O)C(C)(C)[C@@H](O)CC(=O)O[C@H](c2ccc3c(c2)nc(C)n3C)CC1 [Compound 2]	12.3 ± 1.1 nM	5400 ± 400 nM	23.9 ± 2.9 nM	18 ± 3.1 nM	–	–	–	–	–	–	–
Cc1nc2cc([C@@H]3CCN(C(=O)OC(C)(C)C)C/C=C/[C@H](C)[C@H](O)[C@@H](C)C(=O)C(C)(C)[C@@H](O)CC(=O)O3)ccc2n1C [A, (2S,9S,10S,11R,14S,E)-tert-butyl-2-(1,2-dimethyl-1H-benzo[d]imidazol-5-yl)-10,14-dihydroxy-9,11,13,13-tetramethyl-12,16-dioxo-1-oxa-5-azacyclohexadec-7-ene-5-carboxylate, reference compound]	973 ± 64 nM	9100 ± 700 nM	1010 ± 71 nM	920 ± 85 nM	–	–	–	–	–	–	–
Cc1nc2cc([C@@H]3CCN(c4ccc([N+](=O)[O-])c5nonc45)CCC[C@H](C)[C@H](O)[C@@H](C)C(=O)C(C)(C)[C@@H](O)CC(=O)O3)ccc2n1C [Compound 17, (2S,9S,10S,11R,14S)-2-(1,2-dimethyl-1H-benzo[d]imidazol-5-yl)-10,14-dihydroxy-9,11,13,13-tetramethyl-5-(7-nitrobenzo[c][1,2,5]oxadiazol-4-yl)-1-oxa-5-azacyclohexadecane-12,16-dione]	244 ± 45 nM	7200 ± 600 nM	206 ± 8 nM	329 ± 237 nM	–	–	–	–	–	–	–
C/C(=C\c1csc(C)n1)[C@@H]1C[C@@H]2O[C@@H]2CCC[C@H](C)[C@H](O)[C@@H](C)C(=O)C(C)(C)[C@@H](O)CC(=O)O1 [C, Epothilone A, reference compound]	3.4 ± 0.4 nM	4600 ± 500 nM	2.2 ± 0.3 nM	3.2 ± 0.5 nM	–	–	–	–	–	–	–
Cc1nc2cc([C@@H]3CCN(C(=O)OCC(F)(F)F)CCC[C@H](C)[C@H](O)[C@@H](C)C(=O)C(C)(C)[C@@H](O)CC(=O)O3)ccc2n1C [Compound 3]	6.3 ± 2.1 nM	5100 ± 500 nM	17.1 ± 3.3 nM	11.5 ± 1.8 nM	–	–	–	–	–	–	–
Cc1nc2cc([C@@H]3CCN(C(=O)OC(C)(C)C)CCC[C@H](C)[C@H](O)[C@@H](C)C(=O)C(C)(C)[C@@H](O)CC(=O)O3)ccc2n1C [Compound 1, (2S,9S,10S,11R,14S)-tert-butyl-2-(1,2-dimethyl-1H-benzo[d]imidazol-5-yl)-10,14-dihydroxy-9,11,13,13-tetramethyl-12,16-dioxo-1-oxa-5-azacyclohexadecane-5-carboxylate]	–	–	–	–	0.35 nM	2.3 ± 0.6 nM	3900 ± 600 nM	1.6 ± 0.5 nM	> 60 fold	1.9 ± 0.4 nM	–
C/C(=C\c1csc(C)n1)[C@@H]1CCN(C(=O)OC(C)(C)C)CCC[C@H](C)[C@H](O)[C@@H](C)C(=O)C(C)(C)[C@@H](O)CC(=O)O1 [B, reference compound]	126 ± 22 nM	5600 ± 400 nM	110 ± 19 nM	130 ± 24 nM	–	–	–	–	–	–	31 nM
